Each structure is given as a SMILES string.

The assay relates to mixture of Gram positive and Gram negative bacteria. The assay can be described thus: Sonication of Pigment Red 23 dispersion of Example 2 with biocide, bacterial contamination check. More on the design: key: −: no bacterial colonies detected; +: light contamination (10^0 and 10^3 cfu/ml); ++: moderate contamination(10^3-10^5 cfu/ml); +++: heavy contamination(>10^5 cfu/ml). The assay is classed as cell-based. From the text: A mixture of Pigment Red 23, available from Ciba Specialty Chemicals(UK) Ltd., 215.5 parts, Emulan OG (RTM) (35% solution in water), available from BASF, 153.7 parts, tributyl phosphate, available from Albright & Wilson, 2 parts, and water, 128.8 parts, are dispersed by re-circulation through a Bachofen KDL200 bead-mill until colouristic properties are within specification of UNISPERSE (RTM) Red RBS-PI, available from Ciba Specialty Chemicals(UK) Ltd., and adjusted to pH 8.0-8.5 with 20% sodium hydroxide solution. This material is identified as containing the Gram negative bacterium, Pseudomonas putida. 50 millilitre aliquots of this dispersion containing levels of glutaraldehyde (pentane-1,5-dialdehyde), available as the trade product Protectol GDA form BASF or Ucarcide from Union Carbide, between 0 parts per million (ppm) and 2000 ppm are sonicated using a Branson MSE sonicator with a 19 mm horn probe resonating at 20 kHz with an amplitude of 6 microns. Sonication is undertaken in a 100 millilitre glass beaker, diameter 38 mm, with magnetic flea agitator and cooled in a water/ice bath to maintain temperature at 28-32° C. Bacterial growth in each sample is assessed at 5 minute intervals by streaking each dispersion on to Nutrient Agar(NA) plates and incubating the plates for a minimum of 48 hours at 30° C. The plates are then examined for bacterial colonies and expressed according to the following notation:
A mixture of Pigment Red 23,215.5 parts, Emulan OG (RTM) (35% solution in water), 153.7 parts, tributyl phosphate, 2 parts, and water, 128.8 parts are dispersed by re-circulation through a Bachofen KDL200 bead-mill until colouristic properties are within specification of UNISPERSE (RTM) Red RBS-PI as detailed in Example 1 and adjusted to pH 8.0-8.5 with 20% sodium hydroxide solution. This material is identified as having a bacterial count of 4.8×10^6 colony-forming units (cfu) per millilitre comprised of a mixture of Gram positive and Gram negative bacteria. It is treated with 250 parts per million(ppm) of pentane 1,5-dialdehyde and pumped through a 2406 Nearfield Accoustical Processor sonicating at 16 kHz and 20 kHz respectively with a plate separation of 6 mm (approximately) at a flow rate of 750 kg/hr. Assessment bacterial activity is then done by spreading a sample of the pigment dispersion on Nutrient Agar(NA) plates and incubating at 30° C. for 48 hours. […] The temperature rise is 1° C. per pass, from a starting value of 20° C.
The solids dispersion as defined in Example 2, containing the mixture of Gram positive and Gram negative bacteria, is treated separately with 200 ppm and 500 ppm of pentane-1,5-dialdeyde (Ucarcide 250 (RTM)), and with 200 ppm and 500 ppm of CIT/MIT mixture (Acticide LG (RTM)) and each sonicated for a period of 30 minutes according to the process defined in Example 1. Each sample is then checked for bacterial contamination over following 28 days.

`O=CCCCC=O` [glutaraldehyde, pentane-1,5-dialdehyde]: the bacterial contamination result (Ucarcide 250 200 ppm, 1 days after sonication) is “−”; the bacterial contamination entry (Ucarcide 250 200 ppm, 2 days after sonication) was “−”; the bacterial contamination entry (Ucarcide 250 200 ppm, 7 days after sonication) was “−”; the bacterial contamination result (Ucarcide 250 200 ppm, 14 days after sonication) is reported as “−”; the bacterial contamination entry (Ucarcide 250 200 ppm, 28 days after sonication) is “−”; the bacterial contamination result (Ucarcide 250 200 ppm, sonicated 0 mins.) was “+++ (heavy contamination(>10^5 cfu/ml))”. Further, the bacterial contamination result was “++ (moderate contamination(10^3-10^5 cfu/ml))” (Ucarcide 250 200 ppm, sonicated 5 mins.); “−” (Ucarcide 250 200 ppm, sonicated 10 mins.); “−” (Ucarcide 250 200 ppm, sonicated 15 mins.); “−” (Ucarcide 250 200 ppm, sonicated 20 mins.); “−” (Ucarcide 250 200 ppm, sonicated 25 mins.); “−” (Ucarcide 250 200 ppm, sonicated 30 mins.). Besides, the bacterial contamination result reads like this: (Ucarcide 250 500 ppm, 1 days after sonication) “−”; (Ucarcide 250 500 ppm, 2 days after sonication) “−”; (Ucarcide 250 500 ppm, 7 days after sonication) “−”; (Ucarcide 250 500 ppm, 14 days after sonication) “−”; (Ucarcide 250 500 ppm, 28 days after sonication) “−”; (Ucarcide 250 500 ppm, sonicated 0 mins.) “+++ (heavy contamination(>10^5 cfu/ml))”. For the same compound, the bacterial contamination result reads like this: (Ucarcide 250 500 ppm, sonicated 5 mins.) “−”; (Ucarcide 250 500 ppm, sonicated 10 mins.) “−”; (Ucarcide 250 500 ppm, sonicated 15 mins.) “−”; (Ucarcide 250 500 ppm, sonicated 20 mins.) “−”; (Ucarcide 250 500 ppm, sonicated 25 mins.) “−”; (Ucarcide 250 500 ppm, sonicated 30 mins.) “−”.

For the origin of these results see patent publication US6503449B1, “Process for the control of microbial contamination in water-based solids suspensions” (Ciba Specialty Chemicals Corporation, priority 1998, dated 2003).
